Assay results from patent US4348393A, “N-Aryl oxazolidinones, oxazolidinethiones, pyrrolidinones, pyrrolidines and thiazolidinones” (Delalande S.A., priority 1978, dated 1982).
Read-outs that look alike come from different tables or passages of the source.

Legend:
[1] = test system: generalized trembling caused by dl-5-hydroxytryptophane; assay: Test A: potentiation in mice of generalized trembling caused by dl-5-hydroxytryptophane; format: in vivo; conditions: Mus musculus, po, read-out: Test A ED 50
Protocol: Test A: Potentiation in mice of generalized trembling caused by an interperitoneal injection (200 mg/kg) of dl-5-hydroxytryptophane, following the protocol described by C. GOURET and G. RAYNAUD in J. Pharmacol. (Paris), (1974), 5, 231.

[2] = test system: ptosis observed one hour after reserpine; assay: Test B: antagonism of reserpine-induced ptosis in mice; format: in vivo; conditions: Mus musculus, 1 h, po, antagonism of ptosis one hour after reserpine 2 mg/kg intravenous, read-out: Test B ED 50
Protocol: Test B: Antagonism with respect to the ptosis observed one hour after an intravenous injection (2 mg/kg) of reserpine given to mice, following the protocol described by C.

Toxicity LD50 mouse = conditions: in vivo, po, read-out: Toxicity LD 50
[3] = mice, potentiation of trembling by dl-5-hydroxytryptophane 200 mg/kg interperitoneal

Row | Structure (SMILES) | ED50 [1, 3] [mg/kg] | ED50 [2] [mg/kg] | LD50 (Toxicity LD50 mouse) [mg/kg] | ED50 [1] [mg/kg]
1 | COCC1CN(c2ccc(OCc3ccc([N+](=O)[O-])c(Cl)c3)cc2)C(=O)O1 (centres unmarked) [compound 168] | 25 | 16 | > 1000 | 
2 | COCC1CN(c2ccc(/C=C/c3cccc([N+](=O)[O-])c3)cc2)C(=O)O1 (centres unmarked) [compound 191] | 0.4 | 0.38 | 1000 | 
3 | COCC1CN(c2ccc(OCc3cccc([N+](=O)[O-])c3)cc2)C(=O)S1 (centres unmarked) [compound 219, para (metanitro) benzyloxyphenyl-3 methoxymethyl-5 thiazolidinone-2] | 7 | 13.5 | > 1000 | 
4 | CC(C)CCOc1ccc(N2CC(CO)OC2=S)cc1 (centres unmarked) [compound 91] |  | 5.5 | > 2000 | 4.5
5 | COCC1CN(c2ccc(OCc3ccc(F)c([N+](=O)[O-])c3)cc2)C(=O)O1 (centres unmarked) [compound 169] | 3 | 4.1 | > 1000 | 
6 | CN(C)CC1CN(c2ccc(OCc3cccc(C#N)c3)cc2)C(=O)O1 (centres unmarked) [compound 206] | 6 | 4.3 | > 1000 | 
7 | COCC1CN(c2ccc(OCC=C(C)C)cc2)C(=O)O1 (centres unmarked) [compound 185] | 12 | 7 | > 1000 | 
8 | COCC1CN(c2ccc(OCC3CCCC3)cc2)C(=O)O1 (centres unmarked) [compound 49] | 0.5 | 0.4 | 2000 | 
9 | CC(=O)OCC1CN(c2ccc(OCCC(C)C)cc2)C(=O)O1 (centres unmarked) [compound 123] | 2 | 1.4 | > 2000 | 
10 | COCC1CN(c2ccc(OCc3cccc(I)c3)cc2)C(=O)O1 (centres unmarked) [compound 198] | 40 | 34 | > 1000 | 
11 | COCC1CN(c2ccc(OCCC#N)cc2)C(=O)O1 (centres unmarked) [compound 52] | 1.2 |  | > 2000 | 
12 | COCC1CN(c2ccc(OCCCCCl)cc2)C(=O)O1 (centres unmarked) [compound 234] | 0.6 | 4 | > 1000 | 
13 | COCC1CN(c2ccc(OCCN3CCOCC3)cc2)C(=O)O1 (centres unmarked) [compound 181] | 4 | 9 | > 1000 | 
14 | COCC1CN(c2ccc(OCC3CCCCC3)cc2)C(=S)O1 (centres unmarked) [compound 114] | 3.7 | 2 | > 2000 | 
15 | CCC(=O)OCC1CN(c2ccc(OCc3cccc([N+](=O)[O-])c3)cc2)C(=S)O1 (centres unmarked) [compound 208] | 10 | 4.2 | > 1000 | 
16 | CCCOCC1CN(c2ccc(OCc3cccc([N+](=O)[O-])c3)cc2)C(=S)O1 (centres unmarked) [compound 210] | 26 | 7.4 | > 1000 | 
17 | COCC1CN(c2ccc(OCc3cc(C#N)cc([N+](=O)[O-])c3)cc2)C(=S)O1 (centres unmarked) [compound 218] | 7.2 | 13.5 | > 1000 | 
18 | COC[C@@H]1CN(c2ccc(OCc3cccc(C#N)c3)cc2)C(=O)O1 [compound 200] | 1.7 |  | > 1000 | 
19 | COCC1CN(c2ccc(N(C)C)cc2)C(=O)O1 (centres unmarked) [compound 180] | 7.4 | 7.8 | 1000 | 

Row | Structure (SMILES) | ED50 [1, 3] [mg/kg] | ED50 [2] [mg/kg] | LD50 (Toxicity LD50 mouse) [mg/kg] | ED50 [1] [mg/kg]
20 | COCC1CN(c2ccc(OCC3=CCCC3)cc2)C(=O)O1 (centres unmarked) [compound 184] | 1.2 | 0.72 | > 1000 | 
21 | CNCC1CN(c2ccc(OCC3CCCC3)cc2)C(=O)O1 (centres unmarked) [compound 77] | 2.5 | 6.2 | > 2000 | 
22 | COCC1CN(c2ccc(OCc3cccc([N+](=O)[O-])c3)cc2)C(=O)O1 (centres unmarked) [compound 61, para (meta-nitrobenzyloxy) phenyl-3 methoxymethyl-5 oxazolidinone-2] | 0.08 | 0.1 | 1500 | 
23 | NCC1CN(c2ccc(OCc3cc(Cl)cc([N+](=O)[O-])c3)cc2)C(=O)O1 (centres unmarked) [compound 207] | 9.1 | 7.6 | > 1000 | 
24 | CC(=O)OCC1CN(c2ccc(OCC3CCCC3)cc2)C(=O)O1 (centres unmarked) [compound 13] | 3 | 2 | > 2000 | 
25 | CCNCC1CN(c2ccc(OCc3cccc([N+](=O)[O-])c3)cc2)C(=O)O1 (centres unmarked) [compound 203] | 5.2 | 1.4 | 1000 | 
26 | CC(=O)OCC1CN(c2ccc(OCCC#N)cc2)C(=O)O1 (centres unmarked) [compound 3] | 3.1 | 2.7 | > 2000 | 
27 | COCC1CN(c2ccc(CCc3ccccc3)cc2)C(=O)O1 (centres unmarked) [compound 192] | 5.8 | 6 | > 1000 | 
28 | CC=CCOc1ccc(N2CC(COC)OC2=O)cc1 (centres unmarked) [compound 179] |  | 7 | > 1000 | 4.5
29 | COCC1CN(c2ccc(/C=C/c3cccc(Cl)c3)cc2)C(=O)O1 (centres unmarked) [compound 190] | 1 | 0.23 | > 1000 | 
30 | CCC(=O)OCC1CN(c2ccc(OCc3ccccc3)cc2)C(=O)O1 (centres unmarked) [compound 24] | 9 | 12.5 | > 2000 | 
31 | N#Cc1cccc(COc2ccc(N3CC(CN)OC3=O)cc2)c1 (centres unmarked) [compound 205] | 10.1 | 3 | > 1000 | 
32 | O=C(COc1ccccc1)OCC1CN(c2ccc(OCc3cccc([N+](=O)[O-])c3)cc2)C(=O)O1 (centres unmarked) [compound 178] | 33 | 28 | > 1000 | 
33 | CCOCC1CN(c2ccc(OCc3cccc([N+](=O)[O-])c3)cc2)C(=S)O1 (centres unmarked) [compound 216] | 5 | 3 | 1000 | 
34 | COCC1CN(c2ccc(OCc3cccnc3)cc2)C(=S)O1 (centres unmarked) [compound 213] | 3 | 2 | 1000 | 
35 | O=C1CC(CO)CN1c1ccc(OCc2cccc([N+](=O)[O-])c2)cc1 (centres unmarked) [compound 99] | 50 | 30 | > 2000 | 
36 | COCC1CN(c2ccc(/C=C/c3cccc(C#N)c3)cc2)C(=O)O1 (centres unmarked) [compound 196] |  | 0.55 | > 1000 | 
37 | COCC1CN(c2ccc(-c3ccccc3)cc2)C(=O)O1 (centres unmarked) [compound 195] | 1.2 | 2.2 | > 1000 | 
38 | COCC1CN(c2ccc(OCc3cccc(Br)c3)cc2)C(=O)O1 (centres unmarked) [compound 197] | 2.2 | 6.7 | > 1000 | 

Row | Structure (SMILES) | ED50 [1, 3] [mg/kg] | ED50 [2] [mg/kg] | LD50 (Toxicity LD50 mouse) [mg/kg] | ED50 [1] [mg/kg]
39 | O=[N+]([O-])c1cccc(COc2ccc(N3CC(CO)OC3=S)cc2)c1 (centres unmarked) [compound 94] | 1.5 | 1 | > 2000 | 
40 | O=C1OC(CN2CCOCC2)CN1c1ccc(OCc2cccc([N+](=O)[O-])c2)cc1 (centres unmarked) [compound 202] | 10 | 10 | > 1000 | 
41 | COCC1CN(c2ccc(OCc3cccc([N+](=O)[O-])c3)cc2)C(=S)O1 (centres unmarked) [compound 118] | 1 | 0.1 | > 2000 | 
42 | CNCC1CN(c2ccc(OCc3cccc([N+](=O)[O-])c3)cc2)C(=O)O1 (centres unmarked) [compound 85] | 3 | 2 | 1000 | 
43 | COCC1CN(c2ccc(OCc3cc(C#N)cc([N+](=O)[O-])c3)cc2)C(=O)O1 (centres unmarked) [compound 161] | 1.1 | 0.36 | > 2000 | 
44 | COCC1CN(c2ccc(C#Cc3ccccc3)cc2)C(=O)O1 (centres unmarked) [compound 189] | 2.6 | 0.9 | > 1000 | 
45 | COCC1CN(c2ccc(OCC3CCCOC3)cc2)C(=O)O1 (centres unmarked) [compound 182] | 3.7 | 5.8 | > 1000 | 
46 | COCC1CN(c2ccc(OCC3CCC3)cc2)C(=O)O1 (centres unmarked) [compound 183] | 1.9 | 2.4 | > 1000 | 
47 | COCC1CN(c2ccc(/C=C/c3ccccc3)cc2)C(=O)O1 (centres unmarked) [compound 187] | 2.7 | 1.3 | > 1000 | 
48 | CCC(=O)OCC1CN(c2ccc(OCc3cccc(C#N)c3)cc2)C(=O)O1 (centres unmarked) [compound 132] | 3 | 2 | > 2000 | 
49 | COCC1CN(c2ccc(OCC3(C)CCCC3)cc2)C(=O)O1 (centres unmarked) [compound 186] | 3 | 3 | > 1000 | 
50 | COCC1CN(c2ccc(OCCC(C)C)cc2)C(=S)O1 (centres unmarked) [compound 214] | 0.84 | 1.8 | 1000 | 
51 | N#CCCCOc1ccc(N2CC(CO)OC2=S)cc1 (centres unmarked) [compound 212] | 4.3 | 12 | 1000 | 
52 | COC[C@H]1CN(c2ccc(OCc3cccc(C#N)c3)cc2)C(=O)O1 [compound 199] | 0.31 |  | > 1000 | 
53 | OCC1CCN(c2ccc(OCc3ccccc3)cc2)C1 (centres unmarked) [compound 220, N-parabenzyloxyphenyl hydroxymethyl-3 pyrrolidine] | 50 | 50 | > 1000 | 
54 | N#Cc1cc(COc2ccc(N3CC(CO)OC3=S)cc2)ccc1F (centres unmarked) [compound 209] | 7 | 6.7 | 1000 | 
55 | N#CCCCCOc1ccc(N2CC(CO)OC2=S)cc1 (centres unmarked) [compound 215] | 6.2 | 10 | > 1000 | 
56 | COCC1CN(c2ccc(OCC3CCCC3)cc2)C(=S)O1 (centres unmarked) [compound 211] | 2 | 1.2 | 1000 | 
57 | CC(C)NCC1CN(c2ccc(OCc3cccc([N+](=O)[O-])c3)cc2)C(=O)O1 (centres unmarked) [compound 201] | 7.4 | 6.8 | > 1000 | 
